Assays:
[1] = biological target: Phospholipid transfer protein (Homo sapiens) (UniProt P55058); experiment: Inhibition of PLTP in plasma (unknown origin) assessed as reduction in phospholipid transfer from phospholipid liposome to HDL at 250 uM measured after 1 hr relative to control; type: cell-free
[2] = biological target: T1, Cholesteryl ester transfer protein (Homo sapiens) (UniProt P11597); experiment: Inhibition of CETP (unknown origin) at 500 uM incubated for 0.5 hrs by double illuminometer/fluorescence counter method relative to control
T1 sequence (whole entry): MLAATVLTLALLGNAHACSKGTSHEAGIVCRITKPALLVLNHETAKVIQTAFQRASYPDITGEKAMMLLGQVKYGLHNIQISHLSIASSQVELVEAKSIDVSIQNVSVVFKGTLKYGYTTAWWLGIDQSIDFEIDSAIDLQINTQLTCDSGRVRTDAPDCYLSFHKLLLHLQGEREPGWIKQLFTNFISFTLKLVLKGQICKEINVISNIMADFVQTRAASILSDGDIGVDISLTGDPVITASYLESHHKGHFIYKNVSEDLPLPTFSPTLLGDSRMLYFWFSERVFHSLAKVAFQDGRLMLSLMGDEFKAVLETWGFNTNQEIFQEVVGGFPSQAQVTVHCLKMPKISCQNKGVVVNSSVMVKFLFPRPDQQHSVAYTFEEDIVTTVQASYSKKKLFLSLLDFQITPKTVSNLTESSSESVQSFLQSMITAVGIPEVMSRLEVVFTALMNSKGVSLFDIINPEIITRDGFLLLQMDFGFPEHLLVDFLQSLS

[3] = biological target: Phospholipid transfer protein (Homo sapiens) (UniProt P55058); experiment: Inhibition of PLTP in plasma (unknown origin) assessed as reduction in phospholipid transfer from phospholipid liposome to HDL at 150 uM measured after 1 hr relative to control; type: cell-free
[4] = biological target: Phospholipid transfer protein (Homo sapiens) (UniProt P55058); experiment: Inhibition of PLTP in plasma (unknown origin) assessed as reduction in phospholipid transfer from phospholipid liposome to HDL at 500 uM measured after 1 hr relative to control; type: cell-free

Sequence of Phospholipid transfer protein (Homo sapiens) (P55058 whole entry): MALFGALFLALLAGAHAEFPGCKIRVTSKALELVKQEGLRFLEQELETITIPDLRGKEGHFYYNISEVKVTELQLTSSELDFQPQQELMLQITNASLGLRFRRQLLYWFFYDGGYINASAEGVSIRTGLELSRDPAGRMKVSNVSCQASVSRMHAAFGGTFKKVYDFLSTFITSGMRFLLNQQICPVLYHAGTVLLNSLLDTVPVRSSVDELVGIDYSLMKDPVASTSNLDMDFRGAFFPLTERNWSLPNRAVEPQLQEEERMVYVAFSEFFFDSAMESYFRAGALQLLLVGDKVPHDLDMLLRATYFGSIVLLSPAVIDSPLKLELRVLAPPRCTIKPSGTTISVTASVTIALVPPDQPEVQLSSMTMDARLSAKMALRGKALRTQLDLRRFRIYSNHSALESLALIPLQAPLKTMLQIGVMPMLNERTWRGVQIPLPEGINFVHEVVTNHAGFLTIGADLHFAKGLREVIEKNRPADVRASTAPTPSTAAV

SMILES | inhibition [1] | inhibition [2] | inhibition [3] | inhibition [4]
CCCCc1sc(NC(=O)c2ccc(O)c(O)c2)nc1-c1ccc(O)cc1 | 93.4% | 0% | – | –
O=C(Nc1nc(-c2ccc(O)cc2)c(Cc2ccccc2)s1)c1ccc(O)cc1O | – | 88% | 11.5% | –
O=C(Nc1nc(-c2ccc(O)cc2)c(Cc2ccc(F)cc2)s1)c1ccc(O)c(O)c1 | 73.2% | 9.2% | – | –
O=C(Nc1nc(-c2ccc(O)cc2)c(Cc2ccccc2)s1)c1ccc(Cl)cc1 | – | 80.4% | 0% | –
Cc1sc(NC(=O)c2cc(O)c(O)c(O)c2)nc1-c1ccc(O)cc1 | 10.7% | 85.9% | – | –
CCCCc1sc(NC(=O)c2cc(O)c(O)c(O)c2)nc1-c1ccc(O)cc1 | 100% | 27.3% | – | –
COc1ccc(-c2nc(N)sc2CC2CCCCC2)cc1 | – | 79.8% | 0% | –
COc1ccc(-c2nc(N3CCOCC3)sc2Cc2ccccc2)cc1 | – | 91.6% | – | 61%
CCCCc1sc(N)nc1-c1ccc(OC)cc1 | 15.3% | 65.4% | – | –
O=C(Nc1nc(-c2ccc(O)cc2)c(Cc2ccccc2)s1)c1ccc(O)c(O)c1 | 79.8% | 19.4% | – | –
COc1ccc(C(=O)Nc2nc(-c3ccc(O)cc3)c(Cc3ccccc3)s2)cc1 | – | 71.6% | 0% | –
O=C(Nc1nc(-c2ccc(O)cc2)c(CCc2ccccc2)s1)c1ccc(O)c(O)c1 | 97% | 0% | – | –
Cc1sc(NC(=O)c2ccc(O)c(O)c2)nc1-c1ccc(O)cc1 | 71.9% | 58.7% | – | –
COc1ccc(-c2nc(N)sc2CCc2ccccc2)cc1 | 24% | 75.8% | – | –
O=C(Nc1nc(-c2ccccc2)c(Cc2ccc([N+](=O)[O-])cc2)s1)c1ccc(O)c(O)c1 | 100% | 0% | – | –
O=C(Nc1nc(-c2ccc(O)cc2)c(Cc2ccc([N+](=O)[O-])cc2)s1)c1ccc(O)c(O)c1 | 67.6% | 30.4% | – | –
COc1ccc(-c2nc(N3CCNCC3)sc2Cc2ccccc2)cc1 | – | 74.5% | – | 100%
O=C(Nc1nc(-c2ccc(F)cc2)c(Cc2ccc([N+](=O)[O-])cc2)s1)c1ccc(O)c(O)c1 | 100% | 0% | – | –
O=C(Nc1nc(-c2ccc(O)cc2)c(CC2CCCCC2)s1)c1cc(O)c(O)c(O)c1 | 100% | 20.9% | – | –
O=C(CCc1ccc(O)c(O)c1)Nc1nc(-c2ccc(O)cc2)c(Cc2ccccc2)s1 | – | 25.3% | 75.7% | –
O=C(Nc1nc(-c2ccc(O)cc2)c(Cc2ccccc2)s1)c1cc(O)c(O)c(O)c1 | – | 44.1% | 89.4% | –
COc1ccc(-c2nc(N)sc2Cc2ccc(F)cc2)cc1 | 11.5% | 52.8% | – | –
O=C(Nc1nc(-c2ccc(O)cc2)c(CC2CCCCC2)s1)c1ccc(O)c(O)c1 | – | 6% | 81.6% | –
